# Source: patent publication US7989640B2, “Sulfonylpyrrolidine modulators of androgen receptor function and method” (Bristol-Myers Squibb Company, priority 2004, dated 2011)
# Experiments:
# [1] = target: endogenous glucocorticoid receptor (A549 cells) (Homo sapiens, UniProt P04150); settings: concentration ≦10 μM; 10 ng/mL PMA stimulation; typical value of positive control
# Procedure: The AP-1 assay is a cell-based luciferase reporter assay. A549 cells, which contain endogenous glucocorticoid receptor, were stably transfected with an AP-1 DNA binding site attached to the luciferase gene. Cells are then grown in RPMI+10% fetal calf serum (charcoal-treated)+Penicillin/Streptomycin with 0.5 mg/mL geneticin. Cells are plated the day before the assay at approximately 40000 cells/well. On assay day, the media is removed by aspiration and 20 μL assay buffer (RPMI without phenol red+10% FCS (charcoal-treated)+Pen/Strep) is added to each well. At this point either 20 μL assay buffer (control experiments), the compounds of the present invention (“test compounds”) (dissolved in DMSO and added at varying concentrations) or dexamethasome (100 nM in DMSO, positive control) are added to each well. The plates are then pre-incubated for 15 min at 37° C., followed by stimulation of the cells with 10 ng/mL PMA. The plates are then incubated for 7 h at 37° C. after which 40 μL luciferase substrate reagent is added to each well.
# wild type AR (MDA 453) = settings: read-out: Kd for [3H]-DHT; MDA 453 cells, Scatchard analysis
# Procedure: For the whole-cell binding assay, human LNCaP cells (T877A mutant AR) or MDA 453 (wild type AR) in 96-well microtiter plates containing RPMI 1640 or DMEM supplemented with 10% charcoal stripped CA-FBS (Cocaleco Biologicals) respectively, were incubated at 37° C. to remove any endogenous ligand that might be complexed with the receptor in the cells.
# For the saturation analysis, the difference between the total binding and the non-specific binding, was defined as specific binding. […] See e.g. D. Rodbard, Mathematics and statistics of ligand assays: an illustrated guide: In: J. Langon and J. J. Clapp, eds., Ligand Assay, Masson Publishing U.S.A., Inc., New York, pp. 45-99, (1981), the disclosure of which is herein incorporated by reference.
# [formula] After correcting for non-specific binding, IC50 values were determined. […] C2C12 Mouse Myoblast Transactivation Assay
# AR = target: T1, AR (Rattus norvegicus, UniProt P15207)
# T1 sequence (P15207 1-902): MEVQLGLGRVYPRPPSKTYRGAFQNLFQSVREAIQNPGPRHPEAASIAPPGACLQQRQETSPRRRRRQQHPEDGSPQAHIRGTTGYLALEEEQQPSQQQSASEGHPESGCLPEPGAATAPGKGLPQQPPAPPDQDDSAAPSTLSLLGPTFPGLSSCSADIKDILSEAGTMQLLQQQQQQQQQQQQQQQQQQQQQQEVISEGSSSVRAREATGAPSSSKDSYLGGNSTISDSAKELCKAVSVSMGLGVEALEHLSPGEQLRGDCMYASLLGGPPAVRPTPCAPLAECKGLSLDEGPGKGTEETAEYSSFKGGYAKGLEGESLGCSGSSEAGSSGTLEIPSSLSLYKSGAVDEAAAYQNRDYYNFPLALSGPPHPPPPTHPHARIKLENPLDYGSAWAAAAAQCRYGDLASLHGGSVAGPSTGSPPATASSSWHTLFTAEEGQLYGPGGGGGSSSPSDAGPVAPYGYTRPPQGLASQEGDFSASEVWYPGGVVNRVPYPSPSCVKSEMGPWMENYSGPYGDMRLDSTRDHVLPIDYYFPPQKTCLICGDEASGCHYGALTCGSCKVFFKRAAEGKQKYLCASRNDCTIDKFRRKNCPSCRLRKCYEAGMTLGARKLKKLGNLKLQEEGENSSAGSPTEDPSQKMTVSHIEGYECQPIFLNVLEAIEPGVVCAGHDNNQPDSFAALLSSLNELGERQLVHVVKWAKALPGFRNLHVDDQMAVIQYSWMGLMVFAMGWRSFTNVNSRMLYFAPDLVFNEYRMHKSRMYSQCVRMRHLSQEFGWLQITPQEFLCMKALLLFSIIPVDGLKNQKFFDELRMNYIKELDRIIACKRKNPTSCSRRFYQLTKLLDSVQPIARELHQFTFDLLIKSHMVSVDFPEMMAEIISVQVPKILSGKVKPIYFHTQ
# From the text: The activity of compounds of the present invention as AR agonists was investigated in an immature male rat model, a recognized test of anabolic effects in muscle and sustaining effects in sex organs for a given compound, as described in L. G. Hershberger et al., Proc. Soc. […] Biol. Med., 83, 175 (1953); B. L. Beyler et al, “Methods for evaluating anabolic and catabolic agents in laboratory animals”, J. Amer. Med. Women's Ass., 23, 708 (1968); H. Fukuda et al., “Investigations of the levator ani muscle as an anabolic steroid assay”, Nago Dai. Yak. Ken. Nem. 14, 84 (1966) the disclosures of which are herein incorporated by reference.
# The basis of this assay lies in the well-defined action of androgenic agents on the maintenance and growth of muscle tissues and sexual accessory organs in animals and man. […] J. Anat. […] Ital. Biol. Sper. […] II. […] Ital. Biol. Sper. 42, 1600 (1966); A. Boris et al., Steroids 15, 61 (1970). As described above, the effects of androgens on maintenance of male sexual accessory organs, such as the prostate and seminal vesicles, is well described. Castration results in rapid involution and atrophy of the prostate and seminal vesicles. This effect can be reversed by exogenous addition of androgens. […]
# Sequence of endogenous glucocorticoid receptor (A549 cells) (P04150 whole entry): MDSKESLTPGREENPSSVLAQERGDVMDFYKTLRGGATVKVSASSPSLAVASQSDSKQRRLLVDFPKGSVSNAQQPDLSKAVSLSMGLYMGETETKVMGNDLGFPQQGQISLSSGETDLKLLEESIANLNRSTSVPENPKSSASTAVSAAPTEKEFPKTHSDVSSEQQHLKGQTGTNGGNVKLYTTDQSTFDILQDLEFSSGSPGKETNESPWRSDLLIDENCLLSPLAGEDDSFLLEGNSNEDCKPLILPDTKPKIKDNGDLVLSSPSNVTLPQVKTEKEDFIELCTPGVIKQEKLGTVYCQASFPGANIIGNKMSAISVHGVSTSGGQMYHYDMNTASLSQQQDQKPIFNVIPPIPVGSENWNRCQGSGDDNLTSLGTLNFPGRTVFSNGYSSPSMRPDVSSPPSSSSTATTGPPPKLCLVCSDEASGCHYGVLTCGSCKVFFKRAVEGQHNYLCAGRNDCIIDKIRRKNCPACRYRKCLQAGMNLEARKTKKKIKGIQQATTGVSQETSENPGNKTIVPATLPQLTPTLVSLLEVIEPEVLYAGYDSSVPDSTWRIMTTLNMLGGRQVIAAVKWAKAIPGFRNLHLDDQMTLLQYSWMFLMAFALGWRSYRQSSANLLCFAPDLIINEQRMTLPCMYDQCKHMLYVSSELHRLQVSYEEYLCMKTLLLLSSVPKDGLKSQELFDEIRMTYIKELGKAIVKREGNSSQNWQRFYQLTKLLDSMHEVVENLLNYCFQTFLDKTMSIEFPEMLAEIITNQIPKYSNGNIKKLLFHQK
compound,measurement,setting,value
C[C@@H]1C[C@H]2[C@@H]3CCC4=CC(=O)C=C[C@]4(C)[C@@]3(F)[C@@H](O)C[C@]2(C)[C@@]1(O)C(=O)CO [dexamethasone],suppression of activity (% inhibition of the reporter system vs buffer control),[1],65%
tritiated dihydrotestosterone [[^3H]-DHT],Kd,wild type AR (MDA 453),0.7 nM
"CCC(=O)O[C@H]1CC[C@H]2[C@@H]3CCC4=CC(=O)CC[C@]4(C)[C@H]3CC[C@]12C [TP, testosterone propionate]",potency relative to free T,AR; TP versus free T,10-30 fold
same,EC50 (increase in organ weight),"AR; immature castrated rats, dosing for 3 days",~0.03 mg
